Measured values: patent publication US10278942B2 (PELOTON THERAPEUTICS, INC., priority 2015, dated 2019)
Where two headings read alike, the source gives them in different places.

Molecular target: T1, HIF-2α HIS TAG-PASB Domain (Homo sapiens, UniProt Q99814)
T1 construct: 100 nM HIF-2α HIS TAG-PASB Domain
Test: HIF-2α Scintillation Proximity Assay (SPA)
Type: binding
Description: The total assay volume was about 100 μL in the following configuration: 2 μL compound in 100% DMSO, 88 μL buffer with protein and probe and 10 μL of SPA beads. […] The percent inhibition was determined and IC50 values were calculated using the Dotmatics system based on the following equation: % inhibition=[(high control−sample)/(high control−low control)]×100.

[1] = read-out: Scintillation Proximity Assay IC50
[2] = Scintillation Proximity Assay IC50 (nM)

T1 sequence (Q99814 240-350 limits assumed): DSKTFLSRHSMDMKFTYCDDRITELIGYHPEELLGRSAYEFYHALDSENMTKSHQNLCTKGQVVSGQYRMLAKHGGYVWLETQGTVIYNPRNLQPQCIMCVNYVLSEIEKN

Compound	IC50 [1] [nM]	IC50 [2] [nM]
O=S1(=O)c2ccc(Oc3cc(F)cc(Cl)c3)cc2C(O)C1(F)F (centres unmarked) [Compound 362]	–	> 1000
CS(=O)(=O)c1ccc(Oc2cc(F)cc(Cl)c2)c(Br)c1 [Compound 138]	–	> 1000
N#Cc1c(Oc2cc(F)cc(Cl)c2)ccc2c1C(O)C(F)(F)S2(=O)=O (centres unmarked) [Compound 356]	–	< 50
O=S1(=O)c2ccc(Oc3cc(F)cc(Cl)c3)c(C(F)F)c2C(O)C1(F)F (centres unmarked) [Compound 364]	–	< 50
O=Cc1cc(S(=O)(=O)C(F)(F)F)ccc1Oc1cc(F)cc(Cl)c1 [Compound 123]	–	< 50
O=S(=O)(c1ccc(Oc2cc(F)cc(Cl)c2)c(Cl)c1)C(F)(F)F [Compound 128]	–	50 to 249
CS(=O)(=O)CCCOc1ccc(S(=O)(=O)C(F)(F)F)c2c1CC(F)(F)C2O (centres unmarked) [Compound 631]	> 1000	–
CS(=O)(=O)c1ccc(N2CCC[C@H](O)C2)c2c1[C@H](O)C(F)(F)[C@@H]2F [Compound 484, (S)-1-((1S,3R)-2,2,3-trifluoro-1-hydroxy-7-(methylsulfonyl)-2,3-dihydro-1H-inden-4-yl)piperidin-3-ol]	> 1000	–
N#Cc1cc(F)cc(Oc2ccc(S(=N)(=O)C(F)(F)F)cc2C#N)c1 (centres unmarked) [Compound 73]	> 1000	–
O=S(=O)(c1ccc(Cn2nccn2)c2c1[C@H](O)C(F)(F)C2)C(F)(F)F [Compound 535]	> 1000	–
OC1c2c(Br)ccc(OC(F)(F)F)c2CC1(F)F (centres unmarked) [Compound 653]	> 1000	–
CN(Cc1cccs1)c1ccc(S(=O)(=O)C(F)F)c2c1CC(F)(F)[C@H]2O [Compound 530]	> 1000	–
CS(=O)(=NC#N)c1ccc(Oc2cc(F)cc(F)c2)c2c1C(O)CC2 (centres unmarked) [Compound 189]	> 1000	–
O=S(=O)(c1ccc(OC2CCNC2)c2c1C(O)C(F)(F)C2)C(F)(F)F (centres unmarked) [Compound 643]	> 1000	–
O=S(=O)(c1ccc(Nc2ccc(F)c(Cl)c2)c2c1C(O)CC2)C(F)(F)F (centres unmarked) [Compound 504]	> 1000	–
O=S(=O)(c1ccc(CO)c2c1[C@H](O)C(F)(F)C2)C(F)(F)F [Compound 537]	> 1000	–
C=C1CC(O)c2c(S(C)(=O)=O)ccc(Oc3cc(F)cc(Cl)c3)c21 (centres unmarked) [Compound 280]	> 1000	–
O=S(=O)(c1ccc(Oc2ccc(Cl)c(Cl)c2)c(Br)c1)C(F)(F)F [Compound 169]	> 1000	–
Cc1c(Cl)cccc1Oc1ccc(S(=O)(=O)C(F)(F)F)cc1Br [Compound 171]	> 1000	–

Compound	IC50 [1] [nM]	IC50 [2] [nM]
N#Cc1cc(F)cc(Oc2ccc3c(c2Br)[C@@H](O)CS3(=O)=O)c1 [Compound 415]	> 1000	–
O[C@H]1c2c(OCC(F)F)ccc(C(F)(F)F)c2[C@@H](F)C1(F)F [Compound 689]	> 1000	–
CC1(O)c2cc(Oc3cc(F)cc(F)c3)ccc2S(=O)(=O)C1(F)F (centres unmarked) [Compound 425]	> 1000	–
N#Cc1cncc(Oc2ccc(S(=O)(=O)C(F)F)c3c2CC[C@H]3O)c1 [Compound 4]	> 1000	–
N#Cc1c(Oc2cc(F)cc(Cl)c2)ccc(S(=O)(=O)C(F)(F)F)c1NCCO [Compound 154]	> 1000	–
CS(=O)(=O)c1ccc(Oc2cncc(F)c2)c2c1[C@H](O)C(F)(F)[C@H]2F [Compound 330]	> 1000	–
Nc1ccc(Cl)cc1-c1ccc(S(=O)(=O)C(F)(F)F)c2c1CC(F)(F)[C@H]2O [Compound 540]	> 1000	–
CC1(C)CCC(=O)[C@@H](c2ccc(S(=O)(=O)C(F)(F)F)c3c2CC(F)(F)[C@H]3O)C1 [Compound 546]	> 1000	–
CC1(O)c2c(S(=O)(=O)C(F)F)ccc(Oc3cc(F)cc(C#N)c3)c2CC1(F)F (centres unmarked) [Compound 13]	> 1000	–
O=S(=O)(c1ccc(Cc2ccccc2)c2c1C(O)CC2)C(F)(F)F (centres unmarked) [Compound 510]	> 1000	–
COc1ccc(I)c2c1CC(F)(F)C2O (centres unmarked) [Compound 679]	> 1000	–
N#Cc1cc(F)cc(Oc2ccc(S(=O)(=O)C(F)F)c(C#N)c2Br)c1 [Compound 77]	> 1000	–
O=S(=O)(c1ccc(Nc2cncc(Cl)c2)c2c1C(O)CC2)C(F)(F)F (centres unmarked) [Compound 503]	> 1000	–
CN(C)Cc1c(S(=O)(=O)C(F)F)ccc(Oc2cc(F)cc(Cl)c2)c1C#N [Compound 36]	> 1000	–
COCCOc1ccc(S(=O)(=O)C(F)(F)F)c2c1CCC2O (centres unmarked) [Compound 599]	> 1000	–
O=C1CC[C@H](Oc2ccc(S(=O)(=O)C(F)(F)F)c3c2CC(F)(F)[C@H]3O)CN1 [Compound 719]	> 1000	–
CS(=O)(=O)N1CC(Oc2ccc(S(=O)(=O)C(F)(F)F)c3c2CC(F)(F)[C@H]3O)C1 [Compound 793]	> 1000	–
O=S(=O)(c1ccc(CCO)c2c1C(O)C(F)(F)C2)C(F)(F)F (centres unmarked) [Compound 520]	> 1000	–
NC(=O)Cc1ccc(S(=O)(=O)C(F)(F)F)c2c1CC(F)(F)C2O (centres unmarked) [Compound 526]	> 1000	–

Second part, led by results:

IC50 [1] [nM]	Compound	IC50 [2] [nM]
> 1000	NC(=O)Cc1ccc(S(=O)(=O)C(F)(F)F)c2c1CC(F)(F)[C@H]2O [Compound 527]	–
250 to 1000	O=S(=O)(c1ccc(Oc2cncc(Cl)c2)c2c1[C@H](O)CC2)C(F)(F)F [Compound 184]	–
< 50	COCCNC1c2c(ccc(Oc3cc(F)cc(F)c3)c2Br)S(=O)(=O)C1(F)F (centres unmarked) [Compound 379]	–
> 1000	NS(=O)(=O)c1ccc(Oc2cc(F)cc(F)c2)c2c1C(O)CC2 (centres unmarked) [Compound 257]	–
> 1000	O=C1c2c(C(F)(F)F)ccc(OCC(F)F)c2CC1(F)F [Compound 695]	–
> 1000	CC(=O)Nc1ccc(S(=O)(=O)C(F)(F)F)c2c1CCC2O (centres unmarked) [Compound 518]	–
250 to 1000	N#Cc1c(S(=O)(=O)C(F)F)ccc(Oc2cc(F)cc(Cl)c2)c1Br [Compound 76]	–
> 1000	N=S1(=O)CC(O)c2c1ccc(Oc1cc(F)cc(F)c1)c2C(F)F (centres unmarked) [Compound 396]	–
> 1000	O=S(=O)(c1ccc(Oc2cc(F)cc(Cl)c2)c(CCCO)c1)C(F)(F)F [Compound 126]	–
> 1000	N#CCS(=O)(=O)c1ccc(Oc2cc(F)cc(F)c2)c2c1C(O)CC2 (centres unmarked) [Compound 14]	–
> 1000	OC1c2c(F)ccc(OCC(F)F)c2CC1(F)F (centres unmarked) [Compound 652]	–
> 1000	O=S(=O)(c1cc(C(F)(F)F)ccc1Oc1cc(F)cc(Cl)c1)C(F)(F)F [Compound 129]	–
> 1000	N#Cc1ccc(F)c2c1CC(F)(F)C2O (centres unmarked) [Compound 519]	–
> 1000	O=C1c2c(ccc(Oc3cc(F)cc(Cl)c3)c2Br)S(=O)(=O)C12CC2 [Compound 404]	–
> 1000	O=C1Cc2ccc(-c3ccc(S(=O)(=O)C(F)(F)F)c4c3CC(F)(F)[C@H]4O)cc2N1 [Compound 567]	–
> 1000	N#Cc1cncc(Oc2ccc3c(c2Br)[C@@H](O)CS3(=O)=O)c1 [Compound 420]	–
> 1000	O=S(=O)(c1ccc(C(O)CO)c2c1[C@H](O)C(F)(F)C2)C(F)(F)F (some centres unmarked) [Compound 533]	–
> 1000	O=S(=O)(c1ccc(Oc2cc(F)cc(CO)c2)c(Br)c1)C(F)(F)F [Compound 177]	–
> 1000	CN(C)C(=O)COc1ccc(S(=O)(=O)C(F)(F)F)c2c1CC(F)(F)C2O (centres unmarked) [Compound 632]	–
> 1000	CS(=O)(=O)c1ccc(Oc2cncc(Br)c2)c2c1[C@H](O)[C@H](F)C2 [Compound 326]	–
> 1000	CS(=O)(=O)c1ccc(Nc2cc(F)cc(C#N)c2)c2c1C(O)CC2 (centres unmarked) [Compound 498]	–

IC50 [1] [nM]	Compound	IC50 [2] [nM]
> 1000	COCCCOc1ccc(S(=O)(=O)C(F)(F)F)c2c1CCC2O (centres unmarked) [Compound 600]	–
250 to 1000	CS(=O)(=O)c1ccc(Oc2cc(F)cc(C#N)c2)c2c1[C@H](N)C(F)(F)[C@@H]2F [Compound 346]	–
> 1000	CS(=O)(=O)c1ccc(OCCC2(C#N)CC2)c2c1[C@H](O)C(F)(F)[C@@H]2F [Compound 772]	–
> 1000	CCOCC1(COc2ccc(S(=O)(=O)C(F)(F)F)c3c2CC(F)(F)[C@H]3O)COC1 [Compound 708]	–
> 1000	O/N=C1\CCc2c(OCC(F)F)ccc(C(F)(F)F)c21 [Compound 698]	–
250 to 1000	C/C=C/c1c(S(=O)(=O)C(F)F)ccc(Oc2cc(F)cc(C#N)c2)c1C#N [Compound 178]	–
> 1000	CN(C)CCOc1ccc(S(=O)(=O)C(F)(F)F)c2c1CC(F)(F)C2O (centres unmarked) [Compound 641]	–
> 1000	O=S(=O)(c1ccc(O[C@H]2CCCc3cn[nH]c32)c2c1[C@H](O)C(F)(F)C2)C(F)(F)F [Compound 732]	–
> 1000	CC1CC(Oc2ccc(S(=O)(=O)C(F)(F)F)c3c2CCC3O)CCO1 (centres unmarked) [Compound 624]	–
> 1000	O=S(=O)(c1ccc(NC2CCOCC2)c2c1[C@H](O)CC2)C(F)F [Compound 494, (1R)-7-(difluoromethylsulfonyl)-4-(tetrahydropyran-4-ylamino)indan-1-ol]	–
> 1000	O=S(=O)(c1ccc(CC2CCCCC2)c2c1C(O)CC2)C(F)(F)F (centres unmarked) [Compound 508]	–
> 1000	CS(=O)(=O)c1ccc(N2CCC[C@@H](O)C2)c2c1[C@H](O)C(F)(F)[C@@H]2F [Compound 553]	–
> 1000	CNCc1c(S(=O)(=O)C(F)(F)F)ccc(Oc2cc(F)cc(Cl)c2)c1Cl [Compound 113]	–
> 1000	CS(=O)(=O)c1ccc(Nc2cncc(Cl)c2)c2c1C(O)C(F)(F)C2 (centres unmarked) [Compound 500]	–
> 1000	O=S(=O)(c1ccc(OCCO)c2c1C(O)CC2)C(F)(F)F (centres unmarked) [Compound 613]	–
250 to 1000	C=CCN=S(=O)(c1ccc(Oc2cc(F)cc(C#N)c2)c2c1[C@H](O)C(F)(F)C2)C(F)(F)F (some centres unmarked) [Compound 307]	–
50 to 249	Cc1c(Oc2cc(F)cc(C#N)c2)ccc(S(=O)(=O)C(F)(F)F)c1Br [Compound 141]	–
50 to 249	N#Cc1cc(F)cc(Oc2ccc3c(c2C(F)F)C(N)C(F)(F)S3(=O)=O)c1 (centres unmarked) [Compound 387]	–
250 to 1000	COC(=O)C(C)Oc1ccc(S(=O)(=O)C(F)(F)F)c2c1CC(F)(F)C2O (centres unmarked) [Compound 648]	–
< 50	N#Cc1cc(F)cc(Oc2ccc3c(c2Br)[C@@H](O)C(F)(F)S3(=O)=O)c1 [Compound 347]	–
50 to 249	CS(=O)(=O)c1ccc(Oc2cncc(C#N)c2)c2c1[C@H](O)[C@H](F)[C@@H]2F [Compound 333]	–
